Results: patent US20090131484A1, “PREVENTIVE OR REMEDY FOR BOWEL DISEASE” (ASTELLAS PHARMA INC, priority 2005, published 2009)

How the values were obtained:
[1] = test system: cholera toxin-induced intestinal hypersecretion; conditions: mouse, in vivo; for effect on cholera toxin-induced intestinal hypersecretion: iv, 1 mg/kg
[2] = test system: TNBS-induced chronic colitis; assay: Rat TNBS-induced chronic colitis model; conditions: Wistar rats
[3] = test system: oxazolone-induced acute colitis; assay: Rat oxazolone-induced acute colitis model; conditions: DA rats
[4] = test system: restrictive stress-induced diarrhea; assay: Rat stress-induced diarrheal model; assay type: in vivo; conditions: Wister rats
Experimental: Wister male rats were used in this test. The animals were restrained in individual restrictive cages for 4 hours and given stress thereby to have diarrhea. […] Each group consisted of 19 to 20 animals. The statistical pharmaceutical potency analysis of the test compound was attained as a significant chi-square test, and its multiplicity was corrected by Bonferroni multiple comparison.

T84 cells = assay: Chloride-dependent short circuit current (Isc) in human intestinal epithelial cells, Ussing system; assay type: cell-based; conditions: for effect on forskolin-induced Isc increase: forskolin 10 μM; for effect on thapsigargin-induced continuous Isc increase / effect on transient Isc increase seen before the sustained Isc increase: thapsigargin 1 μM
Experimental: It is known that water secretion from epithelial cells is correlated with chloride ion secretion, and the effect to water secretion from epithelial cells may be evaluated through chloride-dependent current measurement.
T84 cells, a human colon epithelial cell-derived cell line, were purchased from American Type Culture Collection (ATCC, USA). T84 cells (3×10^5 cells/well) were cultured on a polyethylenic mesh insert (Transwell® by Corning, USA)) on a 6-well microplate for 10 to 12 days. As the culture medium, 5% bovine calf serum-containing DMEM/F-12 (Gibco, USA) was used. The cultured T84 cells were set in the sample chamber of an Ussing short-circuit current measuring system, and the chloride-dependent short circuit current (Isc) was measured. Isc was induced by adding thapsigargin (1 μM) or forskolin (10 μM) to the T84 cell monolayer specimen at its top on the membrane side thereof. […] In each test, the data obtained by DPC addition were taken as chloride-dependent Isc base line data, and the effect of each test compound was revised.

antigen-induced diarrhea = assay: Mouse antigen-induced diarrheal model; assay type: in vivo; conditions: Balb/c mice, OVA
Experimental: Balb/c female mice were used in this test. The animals were immunized through intraperitoneal administration of 50 μg of ovalbumin (OVA) and 1 mg of aluminium gel (alum), and after 2 weeks from the first immunization, they were again immunized under the same condition. […] The diarrheal condition was checked 1 hour after the OVA administration.

CN(C)C(=O)C(CCN1CCC(O)(c2ccc(Cl)cc2)CC1)(c1ccccc1)c1ccccc1 [Lop, loperamide, reference compound]
effect on cholera toxin-induced intestinal hypersecretion [1]: effective

Cc1cc(C)c(C(=O)Nc2ccc(-n3nc(C(F)(F)F)cc3C(F)(F)F)cc2)cn1 [compound A, 4,6-Dimethyl-4′-[3,5-bis(trifluoromethyl)-1H-pyrazol-1-yl]nicotinanilide]
effect on MPO activity exacerbation ([2]; 0.3 mg/kg po once a day): inhibition of MPO activity exacerbation | effect on diarrheal symptom ([2]; 0.3 mg/kg po once a day): diarrheal symptom relief | effect on intestinal tissue weight increase ([2]; 0.3 mg/kg po once a day): inhibition of intestinal tissue weight increase | effect on disease activity index ([2]; 0.3 mg/kg po once a day, 15 days after colitis induction): significant improvement effect | effect on diarrheal symptom ([3]; at least 0.1 mg/kg oral administration): almost completely inhibited | effect on MPO activity promotion ([3]; oral 0.1, 1.0 or 10 mg/kg): MPO activity promotion inhibition | effect on diarrheal symptom ([3]; oral 0.1, 1.0 or 10 mg/kg): diarrheal symptom relief | effect on intestinal tissue weight increase ([3]; oral 0.1, 1.0 or 10 mg/kg): intestinal tissue weight increase inhibition | effect on disease activity index ([3]; oral 0.1, 1.0 or 10 mg/kg, 24 hours after colitis onset): significant improvement effect | dose for diarrhea-inhibiting effect relative to dose for colitis symptom relieving effect ([3]; oxazolone colitis): about 1/100 | effect on incidence rate of restrictive stress-induced diarrhea ([4]; 10 mg/kg oral administration group): significant inhibition | effect on incidence rate of restrictive stress-induced diarrhea ([4]; 1.0 or 10 mg/kg po 24 hours and 1 hour before 4 hours restraint): dose-dependently inhibited | effect on forskolin-induced Isc increase (T84 cells): dose-dependently inhibited | effect on thapsigargin-induced continuous Isc increase (T84 cells): inhibited | effect on transient Isc increase seen before the sustained Isc increase (T84 cells): did not affect | effect on incidence rate of antigen-induced diarrhea (antigen-induced diarrhea; 3 or 10 mg/kg po 1 hour before OVA): dose-dependently inhibited | effect on cholera toxin-induced intestinal hypersecretion (ileal loop weight per unit length) ([1]; po): dose-dependently inhibited | oral dose at which inhibition of cholera toxin-induced intestinal hypersecretion was significant ([1]; po): ≥ 0.3 mg/kg

C[C@]12C=CC(=O)C=C1CC[C@@H]1[C@@H]2[C@@H](O)C[C@@]2(C)[C@H]1CC[C@]2(O)C(=O)CO [Pred, prednisolone, reference compound]
effect on antigen-induced diarrhea (diarrheal symptom) (antigen-induced diarrhea; 10 mg/kg po 1 hour before OVA): almost completely inhibited

Clc1ccc(COC(Cn2ccnc2)c2ccc(Cl)cc2Cl)cc1 (centres unmarked) [econazole, reference compound]
effect on forskolin-induced Isc increase (T84 cells): dose-dependently inhibited | effect on thapsigargin-induced continuous Isc increase (T84 cells): inhibited | effect on transient Isc increase seen before the sustained Isc increase (T84 cells): did not affect

CN1C2CCCC1CC(NC(=O)c1nn(C)c3ccccc13)C2 (centres unmarked) [Gra, granisetron, reference compound]
effect on cholera toxin-induced intestinal hypersecretion [1]: effective

O=C(O)c1cc(/N=N/c2ccc(S(=O)(=O)Nc3ccccn3)cc2)ccc1O [SSZ, sulfasalazine, reference compound]
effect on TNBS-induced colitis model ([2]; 100 mg/kg po once a day): showed a relieving effect | effect relative to that of the compound A (weaker) ([2]; TNBS colitis): 1/500
